Assay results taken from paper PMC9394307, “Discovery of Putative Dual Inhibitor of Tubulin and EGFR by Phenotypic Approach on LASSBio-1586 Homologs” (Pharmaceuticals, 2022).
Several values for one entry are separate records, joined by “and”; a condition that tells them apart may be missing. Identical values can stand only once. Like-named read-outs stand apart in the source and are kept apart here.

Assays:
MCF-7 = assay: MTT cell viability assay, MCF-7; format: cell-based, human; conditions: MTT, 72 h, value (95% CI), read-out: CC50 (µM) (CI) MCF-7
Experimental: (§1) The cytotoxic activity of compounds 3–13 was determined based on an MTT assay against different human tumor cell lines, using LASSBio-1586 (2), LASSBio-1735 (3), CA-4 (1) and pelitinib as standards (Table 2). To determine the cytotoxic selectivity index, compounds were also evaluated toward human lymphocytes (Table 3).
(§2) The target compounds were tested (0.0001–100 µM) for cytotoxic activity against selected human cancer cell lines, such as HL-60 (acute promyelocytic leukemia), MCF-7 (mammary adenocarcinoma), PC-3 (prostate adenocarcinoma), H1975 (non-small cell lung cancer—EGFR^L858R+T790M), PC-9 (non-small cell lung cancer—EGFR^L858R) H292 (mucoepidermoid pulmonary carcinoma—EGFR wild type), LoVo (colorectal adenocarcinoma—EGFRwild type) and GM16000 (lymphocyte). All the human cancer cell lines were purchased from Cell Bank of Rio de Janeiro—BCRJ. They were cultured in RPMI 1640 medium with 10% (v/v) FBS, 2 mM glutamine, at 37 °C in a humidified incubator containing 5% CO2.
(§3) The cytotoxicity of the compounds was evaluated by the MTT assay. The cell lines were cultured in 96 well plates for 72 h with a density of 0.1 × 10^5 cells/mL to 0.7 × 10^5 cells/mL to adherent cell lines. For lymphocytic lines, a density of 0.3 × 10^6 cells/mL was used. Afterwards they were treated with varying concentrations of the target compounds 2–12 (0.0001–100 µM), CA-4 (1) and pelitinib at 37 °C, in triplicate. The medium was incubated with 20 μL of 5 mg/mL MTT solution for 3 h in a humidified incubator containing 5% CO2 [11].
(§4) The purple-colored formazan crystals formed in the wells were dissolved in DMSO and their absorbance was measured at 595 nm with a microplate reader (SpectraMax M5, Molecular Devices).

PC-9 = assay: MTT cell viability assay, PC-9; format: cell-based, human; conditions: Homo sapiens, MTT, value (95% CI), read-out: CC50 (µM) (CI) PC-9
Experimental: as §1, §2
as §3, with “The cell lines were cultured in 96 well plates for 72 h with a density of 0.1 × 10^5 cells/mL to 0.7 × 10^5 cells/mL to adherent cell lines.” left out
as §4

H1975 cells = assay: Cell cycle analysis by flow cytometry (Guava Muse Cell Cycle Kit); format: cell-based, human; conditions: H1975, 48 h of treatment; CA-4 0.04 µM, LASSBio-1586 2.0 µM, LASSBio-1735 0.08 µM, LASSBio-2070 3.0 µM, LASSBio-2074 1.5 µM; vs DMSO 0.1%
Experimental: Changes in the cell cycle are important aspect in tumorigenesis. Therefore, the identification of the steps related to inhibition of cell multiplication is an important process during the discovery of new antitumoral drug candidates. […] Flow cytometry was used for cell cycle analysis to estimate the percentages of a cell population in the different phases of the cell cycle. The analysis was performed using the lung cancer cell line H1975 treated with CA-4 (1, 0.04 µM), LASSBio-1586 (2, 2.0 µM), LASSBio-1735 (3, 0.08 µM), LASSBio-2070 (10, 3.0 µM) and LASSBio-2074 (11, 1.5 µM).
Flow cytometry was applied to help elucidate the mechanism of action of the studied compounds, both to verify the cell cycle phase and to verify the action on EGFR protein kinase.
The anti-tubulin effect was evaluated by seeding H1975, H292 and PC-9 into 6-well plates at a density of 2 × 10^5 per well. […] Cells were harvested and stained according to the protocols of The Guava Muse® Cell Cycle Kit (MCH100106) to quantitatively measure the percentage of cells in the G2/M phases of the cell cycle and the EGFR-RTK Activation Dual Detection Kit (MCH200102) (Luminex®) to measure EGFR phosphorylation in relation to total EGFR expression in the cell population, according to the manufacturer’s instructions for use in test kits using a Guava Muse® Cell Analyzer (Luminex®). Each experiment was performed at least three times independently.

LoVo = assay: MTT cell viability assay, LoVo; format: cell-based; conditions: Homo sapiens, MTT, 72 h, value (95% CI), read-out: CC50 (µM) (CI) LoVo
Experimental: as §1, §2, §3, §4

H1975 = assay: MTT cell viability assay, H1975; format: cell-based, human; conditions: Homo sapiens, MTT, value (95% CI), read-out: CC50 (µM) (CI) H1975
Experimental: as §1, §2
as §3, with “The cell lines were cultured in 96 well plates for 72 h with a density of 0.1 × 10^5 cells/mL to 0.7 × 10^5 cells/mL to adherent cell lines.” left out
as §4

[1] = MTT cell viability assay, GM16000 lymphocytes; format: cell-based; conditions: GM16000 lymphocyte cells (non-tumor), human lymphocytes, value (95% CI)
HL-60 = assay: MTT cell viability assay, HL-60; format: cell-based, human; conditions: MTT, value (95% CI), read-out: CC50 (µM) (CI) HL-60
Experimental: as §1, §2
as §3, with “The cell lines were cultured in 96 well plates for 72 h with a density of 0.1 × 10^5 cells/mL to 0.7 × 10^5 cells/mL to adherent cell lines.” left out
as §4

[2] = Homo sapiens, HL-60, 48 h, 48 h
[3] = Homo sapiens, HL-60, 72 h, 72 h

Structure (SMILES)	CC50 (MCF-7; Homo sapiens, MCF7, 72 h) [µM]	CC50 (PC-9; PC-9, 48 h, 48 h) [µM]	CC50 (PC-9; PC-9, 72 h, 72 h) [µM]	cell cycle distribution (G0/G1, S, G2/M) (H1975 cells)	CC50 (LoVo) [µM]	CC50 (H1975; NCI-H1975, 48 h, 48 h) [µM]	CC50 (H1975; NCI-H1975, 72 h, 72 h) [µM]	CC50 at 48 h [1] [µM]	CC50 (HL-60; [2]) [µM]	CC50 (HL-60; [3]) [µM]	CC50 (HL-60; 72 h) [µM]	melting point	CC50 (MCF-7) [µM]
COc1cc(C(=O)N/N=C/c2ccccc2)cc(OC)c1OC [LASSBio-1586 (2), (E)-N’-benzylidene-3,4,5-trimetoxybenzohydrazide]	7.53	0.94	0.587	increased cells in phase G2/M	0.039	2.02	1.57	0.763	3.59	2.08	2.13		
COc1cc(C(=O)N(C)/N=C/c2ccccc2)cc(OC)c1OC [LASSBio-1735 (3), (E)-N’-benzylidene-3,4,5-trimethoxy-N-methylbenzohydrazide]	0.28	1.34	0.09	increased cells in phase G2/M	0.149	0.096	0.079	0.059	8.77	0.039		110 °C and 110.56 °C	0.276
COc1cc(C(=O)N(Cc2ccccc2)/N=C/c2ccccc2)cc(OC)c1OC [LASSBio-2070 (10), (E)-N-benzyl-N’-benzylidene-3,4,5-trimethoxybenzohydrazide]	1.7	0.244	0.337	increased cells in phase G2/M	0.208	0.903	2.79	0.935	6.29	0.172		130 to 131 °C and 130.12 °C	
CCOC(=O)CN(/N=C/c1ccccc1)C(=O)c1cc(OC)c(OC)c(OC)c1 [LASSBio-2074 (11), Ethyl (E)-N-(benzylideneamino)-N-(3,4,5-trimethoxybenzoyl)glycinate]	0.869	1.41	0.202	increased cells in phase G2/M	0.106	4.83	1.2	3.91	5.69	0.126		91 to 92 °C and 91.67 °C	
